Like-named read-outs stand apart in the source and are kept apart here.
Tests used:
Type in all cases: cell-based
[1] = system: SARS-CoV-2 (USA-WA1/2020 variant); assay: Virus CPE assay in Vero-E6 cells, USA-WA1/2020; conditions: for EC50: USA-WA1/2020, Vero-E6, 4 days, read-out: EC50, inhibition of CPE; for inhibition at 3 µM: single treatment at 3 μM
[2] = system: SARS-CoV-2 B.1.351/Beta variant; assay: Virus CPE assay in Vero-E6 cells, B.1.351; conditions: Severe acute respiratory syndrome coronavirus 2, Vero C1008, 96 h; B.1.351, Vero-E6, 4 days; read-out: EC50, inhibition of CPE
[3] = system: SARS-CoV-2 B.1.1.7/Alpha variant; assay: Virus CPE assay in Vero-E6 cells, B.1.1.7; conditions: Severe acute respiratory syndrome coronavirus 2, Vero C1008, 96 h; B.1.1.7, Vero-E6, 4 days; read-out: EC50, inhibition of CPE
[4] = Severe acute respiratory syndrome coronavirus 2, Vero C1008, 96 h
[5] = Severe acute respiratory syndrome coronavirus 2, Vero C1008, 5 experiments of 8-fold replicates, read-out: percent of wells with CPE inhibited

**Q.** With `COc1cccc2[nH]c(C(=O)N[C@@H](CC(C)C)C(=O)N[C@@H](C[C@@H]3CCNC3=O)C(=O)COC(=O)c3c(Cl)cccc3Cl)cc12` [AP-8-001, reference compound] as the compound, how does the EC50 [1, 4] read?
**A.** The EC50 was 1.2 ± 0.3 µM.

**Q.** Which EC50 [1, 4] does the source give for `O=C(CN1C(=O)[C@@H](NC(=O)c2ccccc2)COc2ccccc21)N[C@@H](C[C@@H]1CCNC1=O)C(=O)COC(=O)c1c(Cl)cccc1Cl` [AP-8-011, (S)-3-(2-((S)-3-benzamido-4-oxo-3,4-dihydrobenzo[b][1,4]oxazepin-5(2H)-yl)acetamido)-2-oxo-4-((S)-2-oxopyrrolidin-3-yl)butyl 2,6-dichlorobenzoate] here?
**A.** The EC50 was 14.1 ± 3.6 µM.

**Q.** For `O=C(CN1C(=O)[C@@H](NC(=O)OCc2ccccc2)COc2ccccc21)N[C@@H](C[C@@H]1CCNC1=O)C(=O)COC(=O)c1c(Cl)cccc1Cl` [AP-8-013, (S)-3-(2-((S)-3-(benzyloxycarbonylamino)-4-oxo-3,4-dihydrobenzo[b][1,4]oxazepin-5(2H)-yl)acetamido)-2-oxo-4-((S)-2-oxopyrrolidin-3-yl)butyl 2,6-dichlorobenzoate], which EC50 [2] is on record?
**A.** The EC50 was 5.5 ± 0.4 µM.

**Q.** What about the EC50 [3] of the same compound?
**A.** Its EC50 is 10.6 ± 1 µM.

**Q.** And the EC50 [1, 4]?
**A.** The EC50 was 12.8 ± 1.6 µM.

**Q.** What about the inhibition at 3 µM [1, 5] of the same compound?
**A.** Its inhibition at 3 µM is 7.5%.

**Q.** What does the source list for `CC(C)C[C@H](NC(=O)OCc1ccccc1)C(=O)N[C@@H](C[C@@H]1CCNC1=O)C(O)S(=O)(=O)O` (stereo partly drawn) [GC-376]?
**A.** EC50 [3]: 1.3 ± 0.6 µM; EC50 [1, 4]: 3.4 ± 0.9 µM; EC50 [1]: 3.3 ± 1.2 µM

**Q.** What does the source list for `CCC(CC)COC(=O)[C@H](C)N[P@](=O)(OC[C@H]1O[C@@](C#N)(c2ccc3c(N)ncnn23)[C@H](O)[C@@H]1O)Oc1ccccc1` [Remdesivir]?
**A.** EC50 [1, 4]: 3.1 ± 0.7 µM; inhibition at 1 µM ([1]; Severe acute respiratory syndrome coronavirus 2, Vero C1008, single treatment at 1 μM, 5 experiments of 8-fold replicates, read-out: percent of wells with CPE inhibited): 2.5 ± 2.5%; inhibition at 3 µM [1, 5]: 15 ± 9.2%

Source: US20250092029A1 (THE WISTAR INSTITUTE OF ANATOMY AND BIOLOGY, priority 2022, published 2025)
